Broadly, the inhibition is the change of the read-out against control, counted positive when it falls.

This passage reports Activity and inhibition results from ChEMBL document CHEMBL1156493, “Histone deacetylase inhibitors suppress TF-kappaB-dependent agonist-driven tissue factor expression in endothelial cells and monocytes” (J Biol Chem, 2007).

The source made the active and inactive calls. The rule behind the calls is not given here.

The subject of test [1] is HUVEC. Briefly: Increase in acetylated histone H3 level in HUVEC preincubated for 4 hrs assessed after 0.5 hrs of TNFalpha challenge by Western blot. It is filed as functional, cell-based. The note with it: Homo sapiens.
Test [2] deals with HUVEC. The experiment in a line: Effect on TNF-alpha-induced SP1 protein level in HUVEC preincubated for 4 hrs assessed after 0.5 hrs of TNFalpha challenge by Western blotting. The test is classed as functional, cell-based. The note with it: Homo sapiens. Background: A western blot detects proteins with antibodies after separation by electrophoresis.
Test [3] has as its system HUVEC. The experiment in a line: Inhibition of TNF-alpha-induced tissue factor protein expression in HUVEC preincubated for 4 hrs assessed after 4 hrs of TNFalpha challenge by Western blotting. It is filed as functional, cell-based. Particulars: Homo sapiens.
Test [4] concerns the target T1, Tissue factor (Mus musculus) (UniProt P20352).
T1 sequence (whole entry): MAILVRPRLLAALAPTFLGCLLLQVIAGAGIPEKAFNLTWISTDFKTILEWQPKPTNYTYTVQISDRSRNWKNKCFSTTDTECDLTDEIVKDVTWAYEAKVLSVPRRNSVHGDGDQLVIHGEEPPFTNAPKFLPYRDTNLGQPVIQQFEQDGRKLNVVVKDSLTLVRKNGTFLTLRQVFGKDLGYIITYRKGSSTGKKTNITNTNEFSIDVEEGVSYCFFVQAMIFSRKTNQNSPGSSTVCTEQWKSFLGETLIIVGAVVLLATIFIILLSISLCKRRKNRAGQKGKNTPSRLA
Briefly: Inhibition of IL-1-beta-induced tissue factor activity in C57BL/6J mouse macrophages preincubated for 4 hrs assessed after 5 hrs of IL1-beta challenge by one stage clotting assay. The note with it: concentration not given here.

Test [5] deals with HUVEC. The experiment in a line: Inhibition of IL-1-beta-induced tissue factor protein expression in HUVEC preincubated for 4 hrs assessed after 4 hrs of IL1-beta challenge by Western blotting. It is filed as functional, cell-based. The note with it: Homo sapiens.
The subject of test [6] is HUVEC. The experiment in a line: Effect on TNF-alpha-induced TFkappaB activation assessed as p65/c-Rel binding to TFkappaB in HUVEC preincubated for 4 hrs measured after 0.5 hrs of TNFalpha challenge by electrophoretic shift mobility assay. Particulars: Homo sapiens. The test is classed as cell-based.
For test [7], the system named is HUVEC. The experiment in a line: Effect on TNF-alpha-induced IkappaB degradation in HUVEC at 1 uM preincubated for 4 hrs assessed after 60 mins of TNFalpha challenge by Western blotting. It is filed as functional, cell-based. The note with it: Homo sapiens.
For test [8], the system named is HUVEC. The experiment in a line: Induction of PMA-induced wild type NF-kappaB-dependent ICAM promoter expression in HUVEC preincubated for 4 hrs assessed after 6 hrs of PMA challenge by luciferase reporter assay relative to control. It is filed as cell-based. Particulars: Homo sapiens.
The test system of test [9] is HUVEC. Briefly: Induction of PMA-induced wild type TFkappaB-dependent tissue factor promoter expression in HUVEC at 100 nM preincubated for 4 hrs assessed after 6 hrs of PMA challenge by luciferase reporter assay. The test is classed as cell-based. The note with it: Homo sapiens. Background: In a reporter assay the amount or activity of a reporter protein is the signal.

Test [10] relates to HUVEC. The experiment in a line: Effect on TNF-alpha-induced NF-kappaB activation in HUVEC preincubated for 4 hrs assessed as increase in p50 level after 0.5 hrs of TNFalpha challenge by electrophoretic shift mobility assay. The test is classed as cell-based. Particulars: Homo sapiens.
The test system of the next test is Mus musculus. The experiment in a line: Decrease in thioglycolate-induced tissue factor activity in C57BL/6J mouse macrophage at 1 mg/kg, ip preincubated for 4 hrs assessed after 5 hrs of thioglycolate challenge by one stage clotting assay. The note with it: route intraperitoneal. Also on record: scale not given: the % may be the effect or the level left. The test is classed as functional.

The target in test [11] is T1, Tissue factor (Mus musculus). The experiment in a line: Inhibition of TNF-alpha-induced tissue factor activity in C57BL/6J mouse macrophages preincubated for 4 hrs assessed after 5 hrs of TNFalpha challenge by one stage clotting assay. The note with it: concentration not given here.
In test [12] the target is Tissue factor (Homo sapiens) (UniProt P13726). Briefly: Inhibition of TNF-alpha-induced tissue factor activity in HUVEC at 1 uM preincubated for 4 hrs assessed after 4 hrs of TNFalpha challenge by one stage clotting assay. The test is classed as cell-based.
In test [13] the test system is HUVEC. The experiment in a line: Effect on TNF-alpha-induced NF-kappaB activation assessed as p65/p50 binding to NF-kappaB in HUVEC at 1 uM preincubated for 4 hrs measured after 0.5 hrs of TNFalpha challenge by electrophoretic shift mobility assay. It is filed as cell-based. Particulars: Homo sapiens.
For test [14], the system named is HUVEC. Briefly: Effect on TNF-alpha-induced NF-kappaB activation in HUVEC preincubated for 4 hrs assessed as increase in c-Rel level after 0.5 hrs of TNFalpha challenge by electrophoretic shift mobility assay. The test is classed as cell-based. The note with it: Homo sapiens.
Test [15] addresses T1, Tissue factor (Mus musculus). The experiment in a line: Inhibition of baseline tissue factor activity in non-stimulated C57BL/6J mouse macrophages after 4 hrs by one stage clotting assay. Particulars: concentration not given here.
For test [16], the system named is HUVEC. Briefly: Effect on TNF-alpha-induced NF-kappaB activation in HUVEC preincubated for 4 hrs assessed as increase in p65 level after 0.5 hrs of TNFalpha challenge by electrophoretic shift mobility assay. It is filed as cell-based. The note with it: Homo sapiens.
The test system of test [17] is HUVEC. The experiment in a line: Reduction of ICAM1 mRNA level in TNF-alpha-stimulated HUVEC at 1 uM preincubated for 4 hrs assessed after 1 to 2 hrs of TNFalpha challenge by RT-PCR. The test is classed as functional, cell-based. The note with it: Homo sapiens.
Test [18] has as its system HUVEC. The experiment in a line: Inhibition of TNFalpha induced wild type TFkappaB-dependent tissue factor promoter expression in HUVEC preincubated for 4 hrs assessed after 6 hrs of TNFalpha challenge by luciferase reporter assay. It is filed as cell-based. Particulars: Homo sapiens.
Test [19] has as its target T1, Tissue factor (Mus musculus). Briefly: Inhibition of LPS-induced tissue factor activity in C57BL/6J mouse macrophages preincubated for 4 hrs assessed after 5 hrs of LPS challenge by one stage clotting assay. Particulars: concentration not given here.
Test [20] has as its system HUVEC. The experiment in a line: Effect on TNF-alpha-induced wild type NF-kappaB-dependent ICAM1 promoter expression in HUVEC preincubated for 4 hrs assessed after 6 hrs of TNFalpha challenge by luciferase reporter assay. It is filed as cell-based. The note with it: Homo sapiens.
Test [21] concerns HUVEC. The experiment in a line: Effect on LPS-induced wild type NF-kappaB-dependent ICAM1 promoter expression in HUVEC preincubated for 4 hrs assessed after 6 hrs of LPS challenge by luciferase reporter assay. The test is classed as cell-based. Particulars: Homo sapiens.
The subject of test [22] is HUVEC. Briefly: Inhibition of LPS-induced tissue factor protein expression in HUVEC preincubated for 4 hrs assessed after 4 hrs of LPS challenge by Western blotting. The test is classed as functional, cell-based. The note with it: Homo sapiens.
Test [23] relates to HUVEC. The experiment in a line: Effect on TNF-alpha-induced NF-kappaB activation assessed as p65/p50 binding to NF-kappaB in HUVEC at 0.3 uM preincubated for 4 hrs measured after 0.5 hrs of TNFalpha challenge by electrophoretic shift mobility assay. The test is classed as cell-based. Particulars: Homo sapiens.
Test [24] deals with HUVEC. Briefly: Inhibition of TNF-alpha-induced p65 binding to ICAM1 NF-kappaB in HUVEC preincubated for 4 hrs assessed after 0.5 hrs of TNFalpha challenge by chromatin immunoprecipitation assay. The test is classed as cell-based. The note with it: Homo sapiens.
The target in test [25] is Tissue factor (Homo sapiens) (UniProt P13726). The experiment in a line: Inhibition of LPS-induced tissue factor activity in HUVEC at 0.3 uM preincubated for 4 hrs assessed after 4 hrs of LPS challenge by one stage clotting assay.
The subject of test [26] is HUVEC. Briefly: Inhibition of HOSCN-induced tissue factor protein expression in HUVEC preincubated for 4 hrs assessed after 4 hrs of HOSCN challenge by Western blotting. The test is classed as functional, cell-based. The note with it: Homo sapiens.
Test [27] deals with HUVEC. The experiment in a line: Reduction of tissue factor mRNA level in TNF-alpha-stimulated HUVEC at 1 uM preincubated for 4 hrs assessed after 1 to 2 hrs of TNFalpha challenge by RT-PCR. It is filed as functional, cell-based. The note with it: Homo sapiens.
In test [28] the test system is HUVEC. Briefly: Inhibition of TNF-alpha-induced p65 binding to TFkappaB in HUVEC preincubated for 4 hrs assessed after 0.5 hrs of TNFalpha challenge by chromatin immunoprecipitation assay. The note with it: Homo sapiens. The test is classed as cell-based.
The subject of test [29] is HUVEC. The experiment in a line: Increase in acetylated histone H4 level in HUVEC preincubated for 4 hrs assessed after 0.5 hrs of TNFalpha challenge by Western blot. The test is classed as functional, cell-based. Particulars: Homo sapiens.
Test [30] concerns HUVEC. Briefly: Effect on TNF-alpha-induced Egr1 protein level in HUVEC preincubated for 4 hrs assessed after 0.5 hrs of TNFalpha challenge by Western blotting. It is filed as functional, cell-based. The note with it: Homo sapiens.
The subject of test [31] is HUVEC. Briefly: Inhibition of LPS-induced wild type TFkappaB-dependent tissue factor promoter expression in HUVEC preincubated for 4 hrs assessed after 6 hrs of LPS challenge by luciferase reporter assay. The test is classed as cell-based. Particulars: Homo sapiens.
Test [32] relates to HUVEC. The experiment in a line: Effect on TNF-alpha-induced TFkappaB activation assessed as p65/p50 binding to TFkappaB in HUVEC preincubated for 4 hrs measured after 0.5 hrs of TNFalpha challenge by electrophoretic shift mobility assay. It is filed as cell-based. The note with it: Homo sapiens.
Test [33] deals with Tissue factor (Homo sapiens) (UniProt P13726). The note with it: HUVEC, 1 uM.
Description: Inhibition of LPS-induced tissue factor activity in HUVEC at 1 uM preincubated for 4 hrs assessed after 4 hrs of LPS challenge by one stage clotting assay
The target is the same in test [34]. Particulars: HUVEC, 3 uM.
Description: Inhibition of TNF-alpha-induced tissue factor activity in HUVEC at 3 uM preincubated for 4 hrs assessed after 4 hrs of TNFalpha challenge by one stage clotting assay
Test [35] shares this target. Briefly: Inhibition of LPS-induced tissue factor activity in HUVEC at 30 uM preincubated for 4 hrs assessed after 4 hrs of LPS challenge by one stage clotting assay. It is filed as cell-based.
Test [36] shares this target. Briefly: Inhibition of TNF-alpha-induced tissue factor activity in HUVEC at 30 uM preincubated for 4 hrs assessed after 4 hrs of TNFalpha challenge by one stage clotting assay.
Test [37] has the same target. Briefly: Inhibition of LPS-induced tissue factor activity in HUVEC at 6 uM preincubated for 4 hrs assessed after 4 hrs of LPS challenge by one stage clotting assay. It is filed as cell-based.
Test [38] shares this target. The experiment in a line: Inhibition of TNF-alpha-induced tissue factor activity in HUVEC at 6 uM preincubated for 4 hrs assessed after 4 hrs of TNFalpha challenge by one stage clotting assay. It is filed as cell-based.
For test [39] the target is unchanged. The experiment in a line: Inhibition of TNF-alpha-induced tissue factor activity in HUVEC at 10 uM preincubated for 4 hrs assessed after 4 hrs of TNFalpha challenge by one stage clotting assay. It is filed as cell-based.
The target is the same in test [40]. The experiment in a line: Inhibition of LPS-induced tissue factor activity in HUVEC at 10 uM preincubated for 4 hrs assessed after 4 hrs of LPS challenge by one stage clotting assay. It is filed as cell-based.

Chain of Tissue factor (Homo sapiens) (P13726 whole entry): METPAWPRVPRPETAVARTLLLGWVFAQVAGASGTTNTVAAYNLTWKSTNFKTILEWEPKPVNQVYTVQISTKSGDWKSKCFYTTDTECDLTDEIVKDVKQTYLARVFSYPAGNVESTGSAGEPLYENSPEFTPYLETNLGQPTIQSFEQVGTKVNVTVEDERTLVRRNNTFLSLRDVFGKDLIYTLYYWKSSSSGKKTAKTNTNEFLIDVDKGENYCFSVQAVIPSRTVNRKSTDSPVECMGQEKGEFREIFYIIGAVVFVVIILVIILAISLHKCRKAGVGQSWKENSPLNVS

Turning to `CC(/C=C/C(=O)NO)=C\[C@@H](C)C(=O)c1ccc(N(C)C)cc1` [TRICHOSTATIN], the outcome in the test on HUVEC [1], in the test on HUVEC [3], in the test with HUVEC [5], in the test on HUVEC [6], with HUVEC [18] and in the test on HUVEC [22] was Active. In addition, the result with HUVEC [26], with HUVEC [27], in the test on HUVEC [28], in the test on HUVEC [29], with HUVEC [31] and in the test with HUVEC [32] was Active. Further, the outcome in the test on HUVEC [2], in the test on HUVEC [7], in the test on HUVEC [8], in the test with HUVEC [10], in the test with HUVEC [13] and with HUVEC [14] was inactive. The outcome in the test with HUVEC [16], in the test on HUVEC [17], with HUVEC [20], in the test with HUVEC [21], in the test with HUVEC [23] and with HUVEC [24] was inactive. Moreover, in the test on HUVEC [30], the result was inactive. Besides, the inhibition was found to be 60% in [4]; 60% in test [11]; 95% in test [12]; 60% in [15]; 60% in test [19]; 91% in test [25]. Further, the figures for the Activity with HUVEC [9] and in the test on Mus musculus were 75% and 50%, respectively.

As for `CCC(=O)CCCCC[C@@H]1NC(=O)[C@H]2CCCCN2C(=O)[C@H](C(C)CC)NC(=O)[C@H](Cc2cn(OC)c3ccccc23)NC1=O` (single isomer, unassigned), the inhibition in test [33] turned out to be 80%; in [34], 85%.

Regarding `Nc1ccccc1NC(=O)c1ccc(CNC(=O)OCc2cccnc2)cc1`, the inhibition in test [35] was found to be 92%; in test [36], 85%.

As for `CCCC(CCC)C(=O)O`, the inhibition worked out at 93% in test [37] and 81% in test [38].

For the compound `CCCC(=O)[O-].[Na+]`, the inhibition in [39] is 90%; in test [40] it was 95%.
